The source of these data is patent US11034980B2, “Microbial engineering for the production of isoprenoids” (Massachusetts Institute of Technology, priority 2018, dated 2021).

Like-named read-outs stand apart in the source and are kept apart here.

Series [1] has as its target T1, choline kinase from Saccharomyces cerevisiae (ScCK) (Saccharomyces cerevisiae, UniProt P20485).
T1 construct: S. cerevisiae (AAA34499.1), codon optimized; made in house; host or cells: E. coli BL21 (DE3)
T1 sequence (P20485 1-582): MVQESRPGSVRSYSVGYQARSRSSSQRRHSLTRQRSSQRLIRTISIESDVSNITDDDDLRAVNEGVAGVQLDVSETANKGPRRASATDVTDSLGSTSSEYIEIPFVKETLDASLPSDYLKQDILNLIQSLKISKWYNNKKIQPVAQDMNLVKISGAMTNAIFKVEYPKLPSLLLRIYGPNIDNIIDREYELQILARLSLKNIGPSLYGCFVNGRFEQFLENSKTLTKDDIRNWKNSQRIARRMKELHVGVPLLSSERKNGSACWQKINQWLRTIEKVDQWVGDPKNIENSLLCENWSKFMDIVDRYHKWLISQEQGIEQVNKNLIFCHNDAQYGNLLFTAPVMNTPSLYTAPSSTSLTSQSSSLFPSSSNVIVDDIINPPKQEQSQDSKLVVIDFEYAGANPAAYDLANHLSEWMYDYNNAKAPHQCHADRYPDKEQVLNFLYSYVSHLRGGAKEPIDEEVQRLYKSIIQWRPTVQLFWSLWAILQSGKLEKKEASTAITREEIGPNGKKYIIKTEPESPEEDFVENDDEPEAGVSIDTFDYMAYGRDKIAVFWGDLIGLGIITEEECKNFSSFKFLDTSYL
The settings on record: Table 6, Ref Chatzivasileiou et al., 2018; cited from earlier work.

Series [2] relates to multi-enzyme system (CK, IPK, IDI, IspA, GGPPS, TDS). Put plainly: Titration of cofactors and potential inhibitors in the taxadiene multi-enzyme system. Type of series: biochemical. The procedure: The multi-enzyme system reactions were carried out in 50 mM ammonium bicarbonate (pH 7.4) with 10 mM MgCl2, 2 mM MnCl2, 0.05% (w/v) Tween 20, 10 mM ATP, and 5 mM isoprenol at 30° C. unless otherwise stated. The solution in glass GC vials (Agilent) were overlaid with 1/10 volume of dodecane to entrap the volatile isoprenoids. An initial estimated optimal concentration of each enzyme was calculated using the rates determined by individual enzyme assays. The final optimized enzyme concentrations were determined to be 25 μg/mL CK, 15 μg/mL IPK, 25.4 μg/mL IDI, 37.15 μg/mL IspA, 8.15 μg/mL GGPPS, and 25 μg/mL for TDS.
A possible explanation for such inhibitions could be that the enzymes would salt out when a combined amount of >20 mM ATP+ADP (sodium salts) are added to the mixture. […] Since 8 moles of ATP are necessary for the synthesis of 1 mole of taxadiene, salting out of proteins by high concentrations of ATP sodium salt limits that maximum titer of taxadiene that can be achieved using this system making ATP the limiting reagent. […] Furthermore, the consumption of isoprenol in this process could not be determined due to the high variability the utilized GC-FID assay which could not accurately measure such small changes in isoprenol concentration.

Series [3] addresses Farnesyl pyrophosphate synthase (IspA) (Escherichia coli, UniProt P22939). The following applies: cited from earlier work; for Km: Ref Ku et al., 2005, Weaver et al., 2015.
Series [4] relates to Geranylgeranyl pyrophosphate synthase (GGPPS). The settings on record: reported elsewhere (Hefner et al., 1998); cited from earlier work.
Series [5] concerns the target T2, isopentenyl phosphate kinase (IPK) (Arabidopsis thaliana, UniProt Q8H1F7).
T2 construct: Arabidopsis thaliana (AAN12957.1), codon optimized; made in house; host or cells: E. coli BL21 (DE3)
T2 sequence (Q8H1F7 1-332): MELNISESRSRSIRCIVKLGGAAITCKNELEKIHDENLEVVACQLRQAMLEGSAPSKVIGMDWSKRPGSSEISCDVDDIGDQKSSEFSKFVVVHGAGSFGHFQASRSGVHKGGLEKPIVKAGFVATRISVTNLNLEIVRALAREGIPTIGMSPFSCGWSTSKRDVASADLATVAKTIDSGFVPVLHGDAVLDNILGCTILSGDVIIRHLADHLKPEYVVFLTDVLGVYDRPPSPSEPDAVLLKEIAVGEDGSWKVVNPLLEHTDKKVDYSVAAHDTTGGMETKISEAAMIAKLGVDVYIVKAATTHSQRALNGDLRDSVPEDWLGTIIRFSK
Put plainly: IPK kinetics by ATP consumption, PK-LDH coupled NADH assay. The following applies: 10 mM ATP, 30° C., pH 7.4. It is filed as biochemical. As to the method: A single colony from each strain containing one plasmid for the expression of a single enzyme was inoculated into 5 mL of sterile LB media (BD Sciences) with kanamycin and grown overnight at 37° C. One milliliter was then inoculated into a 1 L flask containing 200 mL of sterile SOB media (AMERSCO) with kanamycin. The culture was grown at 30° C. until an optical density (OD) of 0.4-0.6 (λ=600 nm). At this point protein production was induced by the addition of IPTG for a final concentration of 0.1 mM and continued at 30° C. for 3 h. Cells were harvested by centrifugation at 3750 rpm in an Allegra X12R centrifuge (Beckman-Coulter). The supernatant was removed and the cell pellets were frozen at −20° C. until purification. Proteins were visualized by SDS-PAGE performed accordingly to the manufacturer's guidelines (Bio-rad). Gradient (4-20%) gels were purchased from Biorad, as were the Kaleidoscope pre-stained protein ladder, Laemmli 4× sample buffer, Tris-glycine-SDS buffer, and mini-protean electrophoresis chambers. Gels were stained using Instant-Blue (Expedeon). Protein concentrations were very roughly estimated from the gel using Image J (NIH) in order to determine an appropriate amount of resin for purification. Protein Purification All purification steps were performed in a single day on ice and in a cold room when possible. Cell pellets were thawed and resuspended in 30 mL of NPI-10 buffer (50 mM NaH2PO4, 300 mM NaCl, 10 mM imidazole, pH 8.0) and supplemented with 0.5 mM PMSF immediately prior to cell lysis. Cells were lysed by 2-3 passages through an EmulsiFlex-C5 high-pressure homogenizer (Avestin). Lysates were then centrifuged at 4 C for 15 min to remove cellular debris. The clarified lysate was loaded onto a Ni-NTA resin (Gold Bio, capacity 50 mg/mL) which was housed in a gravity column (Thermofisher) and was pre-equilibrated with 10 column volumes (CV) of NPI-10 buffer. The column was then washed with 10 CV of NPI-20 buffer (20 mM imidazole). The enzyme was then eluted from the column by 3 CV using NPI-250 buffer (250 mM imidazole). Enzymes were then exchanged into 50 mM Tris-HCl pH 7.5 using 10 kDa Microseps (Millipore) by centrifugation and repeated buffer exchanges until the imidazole was calculated to be under 1 mM. […] Enzyme concentration was determined using a bicinchoninic acid (BCA) assay kit from Pierce using bovine serum albumin as a standard (BSA). […] The kinetics for CK were previously determined as described. The kinetics for IPK were determined by ATP consumption using a pyruvate kinase (PK) lactate dehydrogenase (LDH) coupled assay (FIGS. 16A & 16B). […] NADH was made fresh each time and the appropriate concentration was determined by constructing a standard curve using a SpectraMax M3 and selecting the highest value in the linear range. […]

Substrate in series [6]: C=C(C)CCO
As to the kind of experiment: In vitro kinetic assay of purified choline kinase with isoprenol or prenol (LC-MS/MS). Type of series: biochemical, Saccharomyces cerevisiae. The following applies: other: 37° C., fixed ATP concentration, purified ScCK, pH 7.5. The procedure:
(§1) Enzyme assays for screening of isopentenol kinase activity was performed as follows. The purified enzymes were added to the enzyme assay master mix for a final concentration of 2 mM ATP, 10 mM MgCl2, 50 mM NH4HCO3 pH 7.5, and 600 μM isoprenol or prenol. They were incubated overnight at 37° C. The reactions were stopped using 5 volumes of ice-cold acetonitrile and centrifuged to remove precipitated proteins using a plate adaptor at 3273×g for 15 min. The supernatant was transferred to a new microplate and frozen at −80° C. The liquid was removed by a 4.5 L lyophilizer (Labconco) and the samples were resuspended in an equal volume of water and centrifuged again prior to quantification using LC-MS/MS.
(§2) Kinetic enzyme assays were conducted using the standard assay conditions described above with the following changes. First, the linear range of the assay was determined over a 90 min period (FIG. 3). Initial velocity appeared linear over this period. Therefore, kinetic assays were quenched after 30 min. For assays at different temperatures, the standard reaction mixture was used while the temperature was varied using a water bath. […] Afterwards, reactions were performed in the standard reaction mixture with NH4HCO3 buffer was adjusted to the appropriate pH. For Michaelis-Menten kinetics, only the concentration of isoprenol or prenol was varied between 1.5-50 μM.

Substrate in series [7]: CC(C)=CCO
The description is as above. Type of series: biochemical, Saccharomyces cerevisiae. The settings on record: other: 37° C., fixed ATP concentration, purified ScCK, pH 7.5. The procedure:
as §1, §2

Farnesyl pyrophosphate synthase (IspA), sequence (P22939 whole entry): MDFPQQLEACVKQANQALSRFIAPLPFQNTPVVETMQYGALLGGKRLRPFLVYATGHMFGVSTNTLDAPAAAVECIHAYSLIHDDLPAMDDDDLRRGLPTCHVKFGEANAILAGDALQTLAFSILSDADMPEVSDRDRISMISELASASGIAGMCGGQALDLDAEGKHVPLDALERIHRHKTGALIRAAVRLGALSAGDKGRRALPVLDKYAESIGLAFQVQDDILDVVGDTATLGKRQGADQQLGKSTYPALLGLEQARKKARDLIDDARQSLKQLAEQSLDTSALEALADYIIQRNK

The term Km denotes the concentration of substrate that gives half-maximal velocity. `CC(C)=CCO` [Prenol, 3-methyl-2-buten-1-ol]: in series [1], the Km was 1110 µM and the kcat is recorded as 1.13 S^−1.
As to `Nc1ncnc2c1ncn2[C@@H]1O[C@H](COP(=O)(O)OP(=O)(O)O)[C@@H](O)[C@H]1O` [ADP, adenosine diphosphate], in series [2] (ADP 0-20 mM in the presence of 10 mM ATP), the “effect on taxadiene production” value is on record as “Some inhibition”.
As to `CC(C)=CCC/C(C)=C/COP(=O)(O)OP(=O)(O)O` [GPP, geranyl diphosphate], in series [3] (reaction IPP + GPP), the Michaelis-Menten constant (Km) is 10.3 µM.
On to `C=C(C)CCO` [Isoprenol, 3-methyl-3-buten-1-ol], for which, in series [1], the Km is 4540 µM and the kcat is 14.7 S^−1.
As to `CC(C)=CCOP(=O)(O)OP(=O)(O)O` [DMAPP, dimethylallyl pyrophosphate], the Michaelis constant (Km) in series [3] (reaction IPP + DMAPP) was 1.3 µM.
With `CC(C)=CCC/C(C)=C/CC/C(C)=C/COP(=O)(O)OP(=O)(O)O` [FPP, farnesyl diphosphate], the Michaelis-Menten constant (Km) in series [4] was 7 µM.
Consider `Nc1ncnc2c1ncn2[C@@H]1O[C@H](COP(=O)(O)OP(=O)(O)OP(=O)(O)O)[C@@H](O)[C@H]1O` [ATP, adenosine triphosphate], for which the “effect on taxadiene production” value in series [2] (20 mM ATP) is recorded as “completely inhibited”. In addition, the “ATP levels that completely inhibited IspA” value in series [3] (Chen et al. (2017)) is given as “above 5 mM”.
Consider `CC(C)=CCOP(=O)(O)O` [DMAP, dimethylallyl monophosphate], for which, in series [5], the Km came out at 35.5 µM and the kcat stood at 53.1 S^−1.

B1: choline kinase from Saccharomyces cerevisiae (ScCK) (Saccharomyces cerevisiae S288C) (protein)
chain: MVQESRPGSVRSYSVGYQARSRSSSQRRHSLTRQRSSQRLIRTISIESDVSNITDDDDLRAVNEGVAGVQLDVSETANKGPRRASATDVTDSLGSTSSEYIEIPFVKETLDASLPSDYLKQDILNLIQSLKISKWYNNKKIQPVAQDMNLVKISGAMTNAIFKVEYPKLPSLLLRIYGPNIDNIIDREYELQILARLSLKNIGPSLYGCFVNGRFEQFLENSKTLTKDDIRNWKNSQRIARRMKELHVGVPLLSSERKNGSACWQKINQWLRTIEKVDQWVGDPKNIENSLLCENWSKFMDIVDRYHKWLISQEQGIEQVNKNLIFCHNDAQYGNLLFTAPVMNTPSLYTAPSSTSLTSQSSSLFPSSSNVIVDDIINPPKQEQSQDSKLVVIDFEYAGANPAAYDLANHLSEWMYDYNNAKAPHQCHADRYPDKEQVLNFLYSYVSHLRGGAKEPIDEEVQRLYKSIIQWRPTVQLFWSLWAILQSGKLEKKEASTAITREEIGPNGKKYIIKTEPESPEEDFVENDDEPEAGVSIDTFDYMAYGRDKIAVFWGDLIGLGIITEEECKNFSSFKFLDTSYL
notes: S. cerevisiae (AAA34499.1), codon optimized; made in house; host or cells: E. coli BL21 (DE3)
On to B1, for which the results for the Michaelis constant (Km) in series [6] and in series [7] were 4539 µM and 1113 µM, respectively. The figures for the kcat in series [6] and in series [7] were 14.7 s⁻¹ and 1.1 s⁻¹, respectively.
